Test results from PubChem BioAssay AID2060507 (Molecular Pharmacology Branch, DTP, NCI, 2025).

Test system: 519858-162-T-J1-PDC complex spheroid viability
Assay: Anticancer human tumor 519858-162-T-J1-PDC patient-derived colon adenocarcinoma cell line growth inhibition [GQUAD]
Conditions: for IC50: curve of first compound; for viability, T/C: stronger effect = lower value
Summary of the method: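 Viability of tumor cells grown as complex spheroids with endothelial and stromal cells, exposed to drug combinations. Top concentration at or near clinical Cmax (else 10 microM), diluted in half-log increments.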

[1] = second compound 0.0316 µM, first compound 0.0316 µM
[2] = second compound 0.0316 µM, first compound 0.316 µM
[3] = second compound 0.1 µM, first compound 0.0316 µM
[4] = second compound 0.1 µM, first compound 0.316 µM
[5] = second compound 0.316 µM, first compound 0.0316 µM
[6] = second compound 0.316 µM, first compound 0.316 µM
[7] = second compound 1 µM, first compound 0.0316 µM
[8] = second compound 1 µM, first compound 0.316 µM
[9] = second compound 3.16 µM, first compound 0.0316 µM
[10] = second compound 3.16 µM, first compound 0.316 µM
[11] = second compound 10 µM, first compound 0.0316 µM
[12] = second compound 10 µM, first compound 0.316 µM
[13] = second compound 0.0316 µM, first compound 0.000999 µM
[14] = second compound 0.0316 µM, first compound 0.00316 µM
[15] = second compound 0.0316 µM, first compound 0.00999 µM
[16] = second compound 0.0316 µM, first compound 0.0999 µM
[17] = second compound 0.1 µM, first compound 0.000999 µM
[18] = second compound 0.1 µM, first compound 0.00316 µM
[19] = second compound 0.1 µM, first compound 0.00999 µM
[20] = second compound 0.1 µM, first compound 0.0999 µM
[21] = second compound 0.316 µM, first compound 0.000999 µM
[22] = second compound 0.316 µM, first compound 0.00316 µM
[23] = second compound 0.316 µM, first compound 0.00999 µM
[24] = second compound 0.316 µM, first compound 0.0999 µM
[25] = second compound 1 µM, first compound 0.000999 µM
[26] = second compound 1 µM, first compound 0.00316 µM
[27] = second compound 1 µM, first compound 0.00999 µM
[28] = second compound 1 µM, first compound 0.0999 µM
[29] = second compound 3.16 µM, first compound 0.000999 µM
[30] = second compound 3.16 µM, first compound 0.00316 µM
[31] = second compound 3.16 µM, first compound 0.00999 µM
[32] = second compound 3.16 µM, first compound 0.0999 µM
[33] = second compound 10 µM, first compound 0.000999 µM
[34] = second compound 10 µM, first compound 0.00316 µM
[35] = second compound 10 µM, first compound 0.00999 µM
[36] = second compound 10 µM, first compound 0.0999 µM
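Throughout, for viability, T/C: 100% = DMSO vehicle control viability.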

C=CC(=O)N1CCN(c2nc(=O)n(-c3c(C)ccnc3C(C)C)c3nc(-c4c(O)cccc4F)c(F)cc23)C(C)C1 (stereo unspecified) + Cc1cnc(CNC(=O)c2c(=O)c3ccc(N4CCCN(C)CC4)nc3n3c2sc2ccccc23)cn1
IC50 (second compound 0.0316 µM): > 10000 nM | IC50 (second compound 0.1 µM): > 10000 nM | IC50 (second compound 0.316 µM): > 10000 nM | IC50 (second compound 1 µM): 2440 nM | IC50 (second compound 3.16 µM): < 31.6 nM | IC50 (second compound 10 µM): 72.9 nM | viability, T/C [1]: 74.2% | viability, T/C (second compound 0.0316 µM, first compound 0.1 µM): 91.8% | viability, T/C [2]: 77.1% | viability, T/C (second compound 0.0316 µM, first compound 1 µM): 89.3% | viability, T/C (second compound 0.0316 µM, first compound 3.16 µM): 46.3% | viability, T/C (second compound 0.0316 µM, first compound 10 µM): 103% | viability, T/C [3]: 97% | viability, T/C (second compound 0.1 µM, first compound 0.1 µM): 70.4% | viability, T/C [4]: 109% | viability, T/C (second compound 0.1 µM, first compound 1 µM): 92.3% | viability, T/C (second compound 0.1 µM, first compound 3.16 µM): 76.3% | viability, T/C (second compound 0.1 µM, first compound 10 µM): 82.9% | viability, T/C [5]: 54.2% | viability, T/C (second compound 0.316 µM, first compound 0.1 µM): 53% | viability, T/C [6]: 55.9% | viability, T/C (second compound 0.316 µM, first compound 1 µM): 57% | viability, T/C (second compound 0.316 µM, first compound 3.16 µM): 65.2% | viability, T/C (second compound 0.316 µM, first compound 10 µM): 76.6% | viability, T/C [7]: 69.1% | viability, T/C (second compound 1 µM, first compound 0.1 µM): 56.3% | viability, T/C [8]: 68.2% | viability, T/C (second compound 1 µM, first compound 1 µM): 56.9% | viability, T/C (second compound 1 µM, first compound 3.16 µM): 40.3% | viability, T/C (second compound 1 µM, first compound 10 µM): 45.5% | viability, T/C [9]: 46.5% | viability, T/C (second compound 3.16 µM, first compound 0.1 µM): 49.6% | viability, T/C [10]: 41.8% | viability, T/C (second compound 3.16 µM, first compound 1 µM): 55.8% | viability, T/C (second compound 3.16 µM, first compound 3.16 µM): 56% | viability, T/C (second compound 3.16 µM, first compound 10 µM): 42.9% | viability, T/C [11]: 60% | viability, T/C (second compound 10 µM, first compound 0.1 µM): 46.4% | viability, T/C [12]: 42.8% | viability, T/C (second compound 10 µM, first compound 1 µM): 48.2% | viability, T/C (second compound 10 µM, first compound 3.16 µM): 48.7% | viability, T/C (second compound 10 µM, first compound 10 µM): 42.8%

CC[C@@]1(O)C(=O)OCc2c1cc1n(c2=O)Cc2cc3c(CN(C)C)c(O)ccc3nc2-1 + Cc1cnc(CNC(=O)c2c(=O)c3ccc(N4CCCN(C)CC4)nc3n3c2sc2ccccc23)cn1
IC50 (second compound 0.0316 µM): > 316 nM | IC50 (second compound 0.1 µM): > 316 nM | IC50 (second compound 0.316 µM): > 316 nM | IC50 (second compound 1 µM): > 316 nM | IC50 (second compound 3.16 µM): > 316 nM | IC50 (second compound 10 µM): < 0.999 nM | viability, T/C [13]: 88% | viability, T/C [14]: 91% | viability, T/C [15]: 89.7% | viability, T/C [1]: 67.7% | viability, T/C [16]: 78% | viability, T/C [2]: 83.7% | viability, T/C [17]: 93.8% | viability, T/C [18]: 89.3% | viability, T/C [19]: 84.5% | viability, T/C [3]: 79.5% | viability, T/C [20]: 70.9% | viability, T/C [4]: 59.4% | viability, T/C [21]: 90.1% | viability, T/C [22]: 86.8% | viability, T/C [23]: 96.5% | viability, T/C [5]: 78.8% | viability, T/C [24]: 80.7% | viability, T/C [6]: 74.6% | viability, T/C [25]: 66.1% | viability, T/C [26]: 58.9% | viability, T/C [27]: 72.8% | viability, T/C [7]: 49.7% | viability, T/C [28]: 59% | viability, T/C [8]: 62.9% | viability, T/C [29]: 67.2% | viability, T/C [30]: 43.9% | viability, T/C [31]: 75.9% | viability, T/C [9]: 43% | viability, T/C [32]: 38.2% | viability, T/C [10]: 64.4% | viability, T/C [33]: 58.5% | viability, T/C [34]: 34.9% | viability, T/C [35]: 40% | viability, T/C [11]: 41.2% | viability, T/C [36]: 37.8% | viability, T/C [12]: 37.6%

CCc1c2c(nc3ccc(O)cc13)-c1cc3c(c(=O)n1C2)COC(=O)[C@]3(O)CC + Cc1cnc(CNC(=O)c2c(=O)c3ccc(N4CCCN(C)CC4)nc3n3c2sc2ccccc23)cn1
IC50 (second compound 0.0316 µM): > 316 nM | IC50 (second compound 0.1 µM): > 316 nM | IC50 (second compound 0.316 µM): > 316 nM | IC50 (second compound 1 µM): > 316 nM | IC50 (second compound 3.16 µM): < 0.999 nM | IC50 (second compound 10 µM): < 0.999 nM | viability, T/C [13]: 121% | viability, T/C [14]: 57.5% | viability, T/C [15]: 81.9% | viability, T/C [1]: 67.6% | viability, T/C [16]: 74.8% | viability, T/C [2]: 64.7% | viability, T/C [17]: 67.5% | viability, T/C [18]: 105% | viability, T/C [19]: 89.3% | viability, T/C [3]: 55.3% | viability, T/C [20]: 61.1% | viability, T/C [4]: 48.2% | viability, T/C [21]: 95.1% | viability, T/C [22]: 94.8% | viability, T/C [23]: 66.2% | viability, T/C [5]: 67.2% | viability, T/C [24]: 65% | viability, T/C [6]: 69.1% | viability, T/C [25]: 66.6% | viability, T/C [26]: 42.9% | viability, T/C [27]: 72.2% | viability, T/C [7]: 55% | viability, T/C [28]: 75% | viability, T/C [8]: 80.4% | viability, T/C [29]: 35.9% | viability, T/C [30]: 48.5% | viability, T/C [31]: 47.8% | viability, T/C [9]: 47.6% | viability, T/C [32]: 52.8% | viability, T/C [10]: 55% | viability, T/C [33]: 42.9% | viability, T/C [34]: 38% | viability, T/C [35]: 62.9% | viability, T/C [11]: 47% | viability, T/C [36]: 50.3% | viability, T/C [12]: 52.1%
